These results are taken from patent US20250206789A1, “ZINC FINGER DEGRON SEQUENCES” (STICHTING HET NEDERLANDS KANKER INSTITUUT-ANTONI VAN …, priority 2022, published 2025).

The test system of one assay is Jurkat cells. The experiment in a line: SynFinger library screen: CD69 expression of CRASH-IT (Zap70-PD1-degron) transduced Jurkat cells with or without lenalidomide, enrichment index from NGS reads. The following applies: for EI index (enrichment index): Table 6, dual substitutions in first hybrid zinc finger domain, Jurkat, 50 nM lenalidomide vs mock, CD69-HI/CD69-LO, low EI = desired. It counts as cell-based. Also noted: key to EI / EI index (enrichment index): enrichment index; low EI = SynFinger with desired properties. The text has this:
[…] Jurkat cells were transduced with the SynFinger library (SynFinger containing CRASH-IT switches) at a 12.8% transduction efficiency and sorted for high EGFP expression to enrich transduced cells. For quality control of the SynFinger transduced Jurkat cells, SynFinger sequences were amplified and analyzed by NGS. 10 randomly selected SynFinger encoding DNA sequences or DNA sequences encoding the same SynFinger amino acid sequences but contain 2 nucleotide mismatches due to alternative codon usage were used to assess ability to distinguish true SynFinger sequences from noise in the NGS data. 10/10 SynFinger encoding full-nucleotide sequence match sequences were observed within NGS data whereas the 2 nucleotide mismatch containing sequences were not detected.
Jurkat cells expressing the SynFinger library were treated with 50 nM lenalidomide (a suboptimal dose that activates only ˜50% of cells expressing a CRASH-IT switch containing the parental double hybrid degron in Jurkat cells, as compared to a maximally effective 1000 nM lenalidomide dose) or were mock treated for 24 hours, and subsequently activated with anti-CD3/anti-CD28 antibodies in the presence or absence of 50 nM lenalidomide for 5 hours. Afterwards, cells were stained with IR dye (1:400) and anti-CD69-PE (1:200). Cells were sorted for live (IR dye negative), EGFP high end CD69 high (top 5%) or CD69 low (bottom 5%) expression using Aria Fusion cytometers.
Subsequently, cells were washed with PBS, and cell pellets were frozen at −20° C. until DNA extraction. Genomic DNA was isolated using the DNeasy Blood & Tissue Kit (Qiagen) according to the manufacturer's instructions, using 5×10^6 cells per column. DNA was eluted in 22 μl RNAse free water. Deep sequencing adapters and indexes were added to SynFinger encoding DNA sequences using PCR amplification. Briefly, 3 μg genomic DNA (20 μl), indexed forward and reverse primers (10 μM, 2.5 μl each) and 25 μl NEBNext® High-Fidelity 2×PCR Master Mix were added to the PCR reaction. An optimized PCR reaction (98° C. for 30 s, (98° C. for 10 s, 56° C. for 10 s, 72° C. for 5 s)×25 cycles, 72° C. for 3 min was performed using Eppendorf PCR cyclers.
Indexed PCR products were run on agarose gel, relative DNA concentrations were estimated by measuring band intensity, and 12 indexed PCR reaction products were mixed per MiSeq chip. To increase sequence diversity, samples were mixed with 25% PhiX DNA. In total, 2 MiSeq chips were used (100 bp, single read). To distinguish genuine SynFinger sequences from sequencing errors, results were filtered using a reference list of actual sequences used in SynFinger library design (100% codon match). Sequences with a very low number of reads (sum of all samples below 500 reads) were excluded from analysis.
To identify SynFingers that improve sensitivity of CRASH-IT switches towards lenalidomide while preserving or improving stringency of switch mediated control of T cell activation in the absence of lenalidomide, an enrichment index (EI) value was calculated for each sequence as described below, and SynFingers were ranked according to their EI, with a low EI indicating a SynFinger with desired properties.
CD69-HI and […] read counts from top 100 SynFingers were compared with read counts from the parental double hybrid degron using a two-sided Fisher's exact test to determine enrichment of CD69-HI cells in the presence of lenalidomide and enrichment of CD69-LO cells in the absence of lenalidomide.
To further improve the sensitivity of double hybrid degron towards IMiDs, we performed a high throughput screen using a library of ˜50,200 CRASH-IT variants that encode either single or double amino acid substitutions at the indicated positions of the first hybrid zinc finger sequence, thereby changing 18 amino acids of this zinc finger into any amino acid except cysteine (FIG. 3). […]

The subject of the next assay is Primary human T cells. The experiment in a line: Cytokine production and degranulation of CDK4 TCR T cells with Zap70-Siglec11-degron CRASH-IT switch co-cultured with NKIRTIL006 melanoma cells, lenalidomide. It is filed as cell-based. The conditions noted are these: 5 nM lenalidomide; as compared to double hybrid degron containing CRASH-IT switch. The text has this:
FIG. 5: SynFingers fusion proteins enable sensitive control of immune cell functions. A subset of SynFingers identified in the SynFinger library screen were individually validated. (A-H) Primary human T cells were modified with the HLA class I restricted CDK4 TCR plus a Zap70-Siglec11-degron CRASH-IT switch, in which the degron sequence contains the parental zinc finger degron (double hybrid degron depicted in FIGS. 1 and 3), or the parental zinc finger degron with the following mutations: G14N/K21A, G14M/N15R, L17I/K21L, E4R/Q12L, Q12R/K13T, or Q12R/K13V. As a control, primary human T cells modified with the HLA class I restricted CDK4 TCR plus vector control were used. Cells were pretreated with 5 nM lenalidomide or left untreated. Data depict intracellular IFNγ, IL2, TNFα, and cell surface LAMP1 expression of CDK4 TCR+, EGFP intermediate, CD8+ T cells upon co-culture with NKIRTIL006 melanoma cells in the continued absence (E-H) or continued presence of 5 nM lenalidomide (A-D). Dashed horizontal lines indicate cytokine production and degranulation levels of cells modified with a CRASH-IT switch containing the parental zinc finger degron. Error bars represent standard deviation (n=2). SynFinger and vector control groups were compared to the parental zinc finger group using a one-sided t test: *=p<0.05, **=p<0.01, ***=p<0.001, ****=p<0.0001, n.s.=not significant. Data are representative of two independent experiments.
FIG. 6: SynFinger containing CRASH-IT switches enable restoration of cytokine production and degranulation at lower IMID concentrations as compared to zinc finger degrons not according to the invention. (A-D) Primary human T cells modified with the HLA class I restricted CDK4 TCR plus a Zap70-Siglec11-degron CRASH-IT switch, in which the degron sequence contains prior art zinc finger degrons (single hybrid, dual zinc finger degron depicted in FIG. 1), the parental zinc finger degron (double hybrid degron depicted in FIGS. 1 and 3), or the parental zinc finger degron with the following mutations: G14N/K21A, L17I/K21L, or Q12R/K13V, were pretreated with the indicated concentrations of lenalidomide or left untreated. Data depict intracellular IFNγ, IL2, TNFα, and cell surface LAMP1 expression of CDK4 TCR+, EGFP intermediate, CD8+ T cells upon co-culture with NKIRTIL006 melanoma cells in the continued presence or absence of the indicated concentration of lenalidomide (A-D). Error bars represent standard deviation (n=3). Data are representative of two independent experiments. (E) Table depicts EC50Lenalidomide (nM) values of cells in (A-D), and EC50 fold change between the prior art zinc finger degron and a SynFinger containing the Q12R/K13V substitutions.
FIG. 7: Combination of dual substitution sets can further increase lenalidomide sensitivity of SynFinger degron. (A-D) Primary human T cells modified with the HLA class I restricted CDK4 TCR plus a Zap70-Siglec11-degron CRASH-IT switch, in which the degron sequence contains the parental zinc finger degron (double hybrid degron depicted in FIGS. 1 and 3), or the parental zinc finger degron with the following mutations: G14N/K21A, Q12R/K13V, or Q12R/K13V/G14N/K21A, were pretreated with the indicated concentrations of lenalidomide or left untreated. Data depict intracellular IFNγ, IL2, TNFα, and cell surface LAMP1 expression of CDK4 TCR+, EGFP intermediate, CD8+ T cells upon co-culture with NKIRTIL006 melanoma cells in the continued presence or absence of the indicated concentration of lenalidomide (A-D). Error bars represent standard deviation (n=3). Data are representative of two independent experiments.
To test whether the SynFingers that show an improved drug sensitivity in this Jurkat SynFinger library screen also led to an improved sensitivity to low IMID concentrations when expressed in primary human T cells, human peripheral blood T cells were modified to express the CDK4 TCR and indicated SynFinger containing CRASH-IT switch variants (FIG. 5). […]

Regarding “67 (LQCEICGFTCRQQLNLLRHIKLH) [compound 67]”, in the assay with Jurkat cells, the “EI index (enrichment index)” value is recorded as 0.0303.

Consider “68 (HQCEICGFTCRQKGRLLRHIKLH) [compound 68]”, for which the “EI index (enrichment index)” value in the assay with Jurkat cells was 0.03141.

“69 (LQCEICGFTCRQKGNLDRHIKRH) [compound 69]”: in the assay on Jurkat cells, the “EI index (enrichment index)” value was 0.03188.

Consider “70 (LQCWICGFTCRQKMNLLRHIKLH) [compound 70]”, for which, in the assay on Jurkat cells, the “EI index (enrichment index)” value worked out at 0.03192.

For “71 (LQCEICGFTCRKKNNLLRHIKLH) [compound 71]”, the “EI index (enrichment index)” value in the assay on Jurkat cells amounted to 0.03227.

For “72 (YQCEICGFTCRQKGNLLRHIILH) [compound 72]”, in the assay with Jurkat cells, the “EI index (enrichment index)” value worked out at 0.03275.

In the case of “73 (LQCHICGFTSRQKGNLLRHIKLH) [compound 73]”, the “EI index (enrichment index)” value with Jurkat cells is 0.03303.

Consider “74 (WQCEICGFTCRQKGNLLRHIALH) [compound 74]”, for which the “EI index (enrichment index)” value in the assay on Jurkat cells worked out at 0.03362.

As for “75 (LQCHICGFTCRQHGNLLRHIKLH) [compound 75]”, the “EI index (enrichment index)” value in the assay on Jurkat cells is reported as 0.03442.

Regarding “76 (LQCQICGFTCRRKGNLLRHIKLH) [compound 76]”, in the assay with Jurkat cells, the “EI index (enrichment index)” value is 0.03445.

In the case of “77 (LQCEICGFTCRKRGNLLRHIKLH) [compound 77]”, in the assay with Jurkat cells, the “EI index (enrichment index)” value was 0.03531.

In the case of “78 (LQCNICGFTCRQLGNLLRHIKLH) [compound 78]”, the “EI index (enrichment index)” value in the assay on Jurkat cells came to 0.03544.

Regarding “79 (LQCEICGFTCRKKGNLLRHIILH) [compound 79]”, the “EI index (enrichment index)” value in the assay with Jurkat cells was 0.03569.

For the substance “80 (LQCEICGFTCRQPGNLLRHYKLH) [compound 80]”, the “EI index (enrichment index)” value with Jurkat cells is listed as 0.03685.

As for “81 (LQCEICGFTCRQDGRLLRHIKLH) [compound 81]”, the “EI index (enrichment index)” value in the assay with Jurkat cells is given as 0.03726.

As for “82 (LQCMICGFTCRQKGNLMRHIKLH) [compound 82]”, the “EI index (enrichment index)” value in the assay with Jurkat cells was found to be 0.03754.

For “83 (LQCWICGFTCRQKGNMLRHIKLH) [compound 83]”, the “EI index (enrichment index)” value in the assay on Jurkat cells was 0.03839.

“84 (LQCEICGFTCRQKGKYLRHIKLH) [compound 84]”: the “EI index (enrichment index)” value with Jurkat cells is recorded as 0.03903.

Consider “85 (WQCMICGFTCRQKGNLLRHIKLH) [compound 85]”, for which the “EI index (enrichment index)” value in the assay with Jurkat cells worked out at 0.03924.

Regarding “86 (LQCVICGFQCRQKGNLLRHIKLH) [compound 86]”, the “EI index (enrichment index)” value in the assay on Jurkat cells is reported as 0.0393.

Take “87 (LQCEICGFTCRQKQRLLRHIKLH) [compound 87]”: the “EI index (enrichment index)” value with Jurkat cells is 0.0394.

As for “88 (LQCEICGFRCRQKGNLLRHIKKH) [compound 88]”, in the assay on Jurkat cells, the “EI index (enrichment index)” value amounted to 0.03947.

As to “89 (MQCEICGFTCRQKSNLLRHIKLH) [compound 89]”, the “EI index (enrichment index)” value in the assay on Jurkat cells was 0.04065.

As for “90 (LQCEICGFTCRQHGVLLRHIKLH) [compound 90]”, the “EI index (enrichment index)” value in the assay with Jurkat cells was determined as 0.04107.

Turning to “91 (LQCWICGFTCRQKGNLWRHIKLH) [compound 91]”, in the assay with Jurkat cells, the “EI index (enrichment index)” value turned out to be 0.04125.

For the substance “92 (LQCEICGFTCRQLRNLLRHIKLH) [compound 92]”, the “EI index (enrichment index)” value in the assay with Jurkat cells stood at 0.04129.

For “93 (LQCEICGFTSRQKGRLLRHIKLH) [compound 93]”, in the assay on Jurkat cells, the “EI index (enrichment index)” value was determined as 0.04175.

On to “94 (MQCVICGFTCRQKGNLLRHIKLH) [compound 94]”, for which, in the assay with Jurkat cells, the “EI index (enrichment index)” value is given as 0.04229.

In the case of “95 (LQCLICGFTCRQKGNLLRHIRLH) [compound 95]”, the “EI index (enrichment index)” value in the assay with Jurkat cells amounted to 0.04285.

Regarding “96 (LQCEICGFTCRQKLNLLRHIKRH) [compound 96]”, the “EI index (enrichment index)” value in the assay with Jurkat cells was determined as 0.04285.

“97 (LQCEICGFTCRKKVNLLRHIKLH) [compound 97]”: in the assay on Jurkat cells, the “EI index (enrichment index)” value is recorded as 0.04294.

With “98 (LQCEICGFKCRQKGNLLRHIKRH) [compound 98]”, in the assay with Jurkat cells, the “EI index (enrichment index)” value amounted to 0.04302.

As to “99 (LQCEICGFTCRQKGNLLRHINNH) [compound 99]”, the “EI index (enrichment index)” value in the assay with Jurkat cells is listed as 0.04339.

For “100 (LQCEICGFTCRQKGRLLRHIHLH) [compound 100]”, the “EI index (enrichment index)” value in the assay with Jurkat cells turned out to be 0.04461.

With LQCEICGFTCRQKGNLIRHILLH [SEQ ID NO: 14], in the assay with Primary human T cells, the “cytokine production at very low lenalidomide concentration” value (from here on “cytokine production”) is “improved cytokine production”.

Regarding LQCEICGFTCRQKMRLLRHIKLH [SEQ ID NO: 4], the “cytokine production” value with Primary human T cells was “improved cytokine production”.

LQCEICGFTCRQKNNLLRHIALH [SEQ ID NO: 6]: in the assay with Primary human T cells, the “cytokine production” value is “improved cytokine production”.

Turning to LQCEICGFTCRRTGNLLRHIKLH [SEQ ID NO: 2], the “cytokine production” value with Primary human T cells was “improved cytokine production”.

For the substance “YQCEICGFTCRQKGNLLRHIKLH [SEQ ID NO: 108, first hybrid zinc finger domain with only one mutation, substitution L1Y]”, the “EI value, times higher as compared to SEQ ID. NO 36” value with Jurkat cells (single mutation vs dual substitution L1Y/E4V, higher EI = less sensitive to IMiD) is 10-15 times. For the same substance, the “EI value, times higher as compared to SEQ ID. NO 100” value with Jurkat cells (single mutation vs dual substitution, higher EI = less sensitive to IMiD) is listed as “at least 5 times”.
